Measurements: the supplement of paper PMC10307832

Tests used:
Test in all cases: relative viability (nuclei count vs DMSO), 5 days (fraction); higher = more cells survive
[1] = compound: N=C1NC(=O)/C(=C/c2ccc(O)cc2)S1 [Mirin] + Cc1nc(NC(=O)N2CCC[C@H]2C(N)=O)sc1-c1ccnc(C(C)(C)C(F)(F)F)c1 [Alpelisib] (partner 2 µM)
How it was run: (§1)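 Cells from lung cancer lines were seeded into 1536-well plates and, one day later, dosed by pin tool. Treatments were either a single drug or a fixed dose of an anchor drug with five library-drug doses (not always all listed) in √10 steps. After 5 days, nuclei were stained in a one-step fixation (final 0.05% Triton X-100, 1% formaldehyde, 1 ug/ml Hoechst) and counted on 4× images, and relative viability is the treated-to-vehicle nuclei ratio, as the median of duplicate plates.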

[2] = compound: CCn1c(-c2nonc2N)nc2cnc(Oc3cccc(NC(=O)c4ccc(OCCN5CCOCC5)cc4)c3)cc21 + COc1cccc2cc(-c3nc([C@H]4CC[C@H](C(=O)O)CC4)n4ncnc(N)c34)[nH]c12 [OSI-027] (partner 0.5 µM)
How it was run: as §1

[3] = compound: CCC1=CN=CN=C1N2CCN(CC2)CC3=NC4=C(N3)C=C(C=C4)C(F)(F)F + COc1cccc2cc(-c3nc([C@H]4CC[C@H](C(=O)O)CC4)n4ncnc(N)c34)[nH]c12 [OSI-027] (partner 0.5 µM)
How it was run: as §1

[4] = compound: CCC1=CN=CN=C1N2CCN(CC2)CC3=NC4=C(N3)C=C(C=C4)C(F)(F)F + O=C(CCCCCCC(=O)Nc1ccccc1)NO [Vorinostat] (partner 1 µM)
How it was run: as §1

Cell Line | relative viability ([1]; first compound 0.25 µM) | relative viability ([1]; first compound 0.7906 µM) | relative viability ([1]; first compound 2.5 µM) | relative viability ([1]; first compound 7.906 µM) | relative viability ([1]; first compound 25 µM) | relative viability ([2]; first compound 0.04 µM) | relative viability ([2]; first compound 0.1265 µM) | relative viability ([2]; first compound 0.4 µM) | relative viability ([2]; first compound 1.265 µM) | relative viability ([2]; first compound 4 µM) | relative viability ([3]; first compound 0.04 µM) | relative viability ([3]; first compound 0.1265 µM) | relative viability ([3]; first compound 0.4 µM) | relative viability ([3]; first compound 1.265 µM) | relative viability ([3]; first compound 4 µM) | relative viability ([4]; first compound 0.04 µM) | relative viability ([4]; first compound 0.1265 µM) | relative viability ([4]; first compound 0.4 µM) | relative viability ([4]; first compound 1.265 µM) | relative viability ([4]; first compound 4 µM)
RERF-LC-KJ | 0.822 | 0.898 | 0.956 | 0.916 | 0.75 | 0.625 | 0.496 | 0.38 | 0.371 | 0.389 | 0.517 | 0.584 | 0.602 | 0.517 | 0.601 | 0.638 | 0.717 | 0.715 | 0.634 | 0.704
LOU-NH91 | 0.726 | – | 0.728 | 0.65 | 0.747 | 0.741 | 0.561 | 0.44 | 0.426 | 0.471 | 0.613 | 0.709 | 0.711 | 0.677 | 0.75 | 0.842 | 0.907 | 0.927 | 0.76 | 0.993
PC-3 [JPC-3] | 1.04 | 1.02 | 1.03 | 1.07 | 1.18 | 0.838 | 0.802 | 0.701 | 0.773 | 0.656 | 0.65 | 0.67 | 0.705 | 0.731 | 0.728 | – | 0.737 | 0.738 | 0.701 | 0.885
NCI-H2126 | 0.758 | 0.724 | 0.784 | 0.679 | 0.688 | 0.811 | 0.754 | – | – | 0.899 | 0.759 | 0.688 | 0.624 | 0.628 | 0.708 | 0.794 | 0.781 | 0.766 | 0.595 | 0.742
LU99A | 0.541 | 0.518 | 0.498 | 0.376 | 0.352 | 0.298 | 0.254 | 0.227 | 0.259 | 0.225 | 0.287 | 0.281 | 0.316 | 0.283 | 0.289 | 0.608 | 0.486 | 0.528 | 0.466 | 0.652
BEN | 1.03 | 1.08 | 1.09 | 0.973 | 0.467 | 0.27 | 0.267 | 0.243 | 0.266 | 0.24 | 0.299 | 0.276 | 0.317 | 0.223 | 0.256 | 0.556 | 0.566 | 0.565 | 0.457 | 0.464
SW 1573 | 0.529 | 0.72 | 0.794 | 0.665 | 0.508 | 0.835 | 0.594 | 0.299 | 0.326 | 0.237 | 0.529 | 0.582 | 0.53 | 0.49 | 0.499 | 0.623 | 1.08 | 0.756 | 0.575 | 0.734
NCI-H1975 | 0.626 | 0.631 | 0.618 | 0.714 | 0.572 | 0.616 | 0.465 | 0.322 | 0.196 | 0.208 | 0.766 | 0.68 | 0.676 | 0.579 | 0.64 | 0.796 | 0.703 | 0.704 | 0.654 | 0.687
SK-LU-1 | 1.12 | 0.885 | 1.07 | 0.698 | 0.53 | 0.359 | 0.322 | 0.216 | 0.199 | 0.22 | 0.386 | 0.315 | 0.337 | 0.3 | 0.357 | 0.675 | 0.74 | 0.76 | 0.777 | 0.68
NCI-H460 | 0.511 | 0.424 | 0.559 | 0.515 | 0.236 | 0.741 | 0.561 | 0.364 | 0.163 | 0.0569 | 0.752 | 0.59 | 0.645 | 0.538 | 0.595 | 0.819 | 0.69 | 0.708 | 0.684 | 0.672
LCLC-103H | 0.917 | 1.02 | 0.908 | 1.05 | 1.1 | 0.522 | 0.448 | 0.231 | 0.312 | 0.323 | 0.48 | 0.492 | 0.4 | 0.456 | 0.457 | 0.797 | 0.685 | 0.746 | 0.668 | 0.717
HCC-78 | 0.389 | 0.393 | 0.366 | 0.291 | 0.298 | 0.43 | 0.429 | – | 0.574 | 0.625 | 0.347 | 0.37 | 0.359 | 0.381 | 0.372 | 0.528 | 0.405 | 0.47 | 0.4 | 0.409
NCI-H1915 | 1.04 | – | 1.09 | 0.948 | 1.08 | 0.695 | 0.626 | 0.476 | 0.259 | 0.252 | 0.612 | 0.629 | 0.605 | 0.49 | 0.587 | 0.591 | 0.51 | 0.496 | 0.492 | 0.559
